Experimental data as given in the CheMixHub ionic liquid set.

Test: xn = mol fraction of the nth substance listed

CCCCCCCCCCCCCCCC[n+]1ccccc1.[Cl-] + OCC(O)CO + O
electrical conductivity [S/m], 100 kPa
Conditions	293.15 K	298.15 K	303.15 K	308.15 K
x1 = 3.75e-06, x2 = 0.01019	0.0022	0.0024	0.0025	0.0029
x1 = 3.92e-06, x2 = 0.02128	0.0022	0.0023	0.0024	0.0032
x1 = 4.1e-06, x2 = 0.03338	0.0019	0.0022	0.0026	0.0032
x1 = 4.29e-06, x2 = 0.04664	0.0019	0.0022	–	0.0032
x1 = 7.51e-06, x2 = 0.01019	0.004	0.0042	0.0046	0.0052
x1 = 7.84e-06, x2 = 0.02128	0.0035	0.0039	0.0043	0.0054
x1 = 8.2e-06, x2 = 0.03338	0.0031	0.0037	0.0043	0.0049
x1 = 8.59e-06, x2 = 0.04664	0.003	0.0036	0.0044	0.0048
x1 = 1.126e-05, x2 = 0.01019	0.0058	–	0.0065	0.0076
x1 = 1.176e-05, x2 = 0.02128	–	0.0054	0.0064	0.0077
x1 = 1.23e-05, x2 = 0.03338	0.0043	0.0052	0.0059	0.0068
x1 = 1.288e-05, x2 = 0.04664	0.004	0.005	0.0058	0.0065
x1 = 1.502e-05, x2 = 0.01019	0.0076	0.0076	0.0085	–
x1 = 1.568e-05, x2 = 0.02128	0.0063	–	0.0084	–
x1 = 1.639e-05, x2 = 0.03338	0.0056	0.0066	0.0077	0.0088
x1 = 1.718e-05, x2 = 0.04664	0.0052	0.0063	0.0072	0.0083
x1 = 1.877e-05, x2 = 0.01019	0.0087	0.0092	–	–
x1 = 1.96e-05, x2 = 0.02128	0.0076	0.0087	–	–
x1 = 2.049e-05, x2 = 0.03338	0.0069	0.0081	0.0093	–
x1 = 2.147e-05, x2 = 0.04664	0.0063	0.0078	0.0086	–
x1 = 2.253e-05, x2 = 0.01019	0.0094	–	–	–
x1 = 2.351e-05, x2 = 0.02128	0.0083	0.0096	–	–
x1 = 2.459e-05, x2 = 0.03338	0.0079	0.0089	–	–
x1 = 2.577e-05, x2 = 0.04664	0.0073	0.0089	0.0097	–
x1 = 2.743e-05, x2 = 0.02128	0.0089	–	–	–
x1 = 2.869e-05, x2 = 0.03338	0.0086	0.0095	–	–
x1 = 3.006e-05, x2 = 0.04664	0.0079	0.0095	–	–
x1 = 3.135e-05, x2 = 0.02128	0.0095	–	–	–
x1 = 3.279e-05, x2 = 0.03338	0.0092	–	–	–
x1 = 3.436e-05, x2 = 0.04664	0.0084	–	–	–
x1 = 3.688e-05, x2 = 0.03338	0.0098	–	–	–
x1 = 3.865e-05, x2 = 0.04664	0.0089	–	–	–
x1 = 4.295e-05, x2 = 0.04664	0.0094	–	–	–

CC[S+](CC)CCOCCOCC[S+](CC)CC.O=S(=O)([N-]S(=O)(=O)C(F)(F)F)C(F)(F)F.O=S(=O)([N-]S(=O)(=O)C(F)(F)F)C(F)(F)F + CC[n+]1ccn(C)c1.N#C[N-]C#N + O=S(=O)([N-]S(=O)(=O)C(F)(F)F)C(F)(F)F.[Li+]
100 kPa, x1 = 0.1539, x2 = 0.744
Conditions	electrical conductivity [S/m]
298 K	0.615
303 K	0.691
313 K	0.953
323 K	1.22
333 K	1.57
343 K	1.93

CCCC[P+](c1ccccc1)(c1ccccc1)c1ccccc1.[Br-] + OCCO
100 kPa, x2 = 0.9756
Conditions	viscosity [mPa·s]
303.15 K	21.6
313.15 K	18.5
323.15 K	15.5
333.15 K	14
343.15 K	12
353.15 K	10.5

CCCCCCCCCCCCCCCC[n+]1ccccc1.[Br-] + NCC(=O)NCC(=O)O + O
electrical conductivity [S/m], 100 kPa
Conditions	x1 = 8.993e-05, x2 = 0.001802	x1 = 8.996e-05, x2 = 0.001442	x1 = 8.999e-05, x2 = 0.001082	x1 = 9.003e-05, x2 = 0.0007216	x1 = 9.006e-05, x2 = 0.0003609	x1 = 9.009e-05, x2 = 0
298.15 K	0.023	0.022	0.021	0.02	0.019	0.021
303.15 K	0.024	0.023	0.022	0.021	0.02	0.021
308.15 K	0.025	0.024	0.023	0.022	0.021	0.022
313.15 K	0.026	0.025	0.024	0.023	0.022	0.024

O=S=O + OCCO + C[P+](c1ccccc1)(c1ccccc1)c1ccccc1.[Br-]
100 kPa
Conditions	viscosity [mPa·s]
303.15 K, x1 = 0.02458, x2 = 0.9516	18.4
313.15 K, x1 = 0.01623, x2 = 0.9598	14
323.15 K, x1 = 0.01303, x2 = 0.9629	10.1
333.15 K, x1 = 0.01147, x2 = 0.9644	7.5
343.15 K, x1 = 0.009705, x2 = 0.9661	6

CCCCCCCCCCCCCC[P+](CCCCCC)(CCCCCC)CCCCCC.O=[N+]([O-])c1cn[n-]c1 + CCCCCC[n+]1ccn(C)c1.O=S(=O)([N-]S(=O)(=O)C(F)(F)F)C(F)(F)F
100 kPa
Conditions	viscosity [mPa·s]
278.15 K, x2 = 0.7	830
293.15 K, x2 = 0.203	790

CC(=O)[O-].[Na+] + O + CCCC[n+]1ccn(C)c1.N#C[S-]
Conditions	viscosity [mPa·s]
323.15 K, 101 kPa, x1 = 0.08925, x2 = 0.9088	2.515
